From patent US7419976B2, “Diazepanes derivatives useful as IFA inhibitors” (Novartis AG, priority 2003, dated 2008)

Experiments:
[1] = system: allergic contact dermatitis in mice; assay: Test Example: inhibition of allergic contact dermatitis (ACD) in vivo, pinnal weight and MPO activity; conditions: oral single dose 0.01-10.0 mg/kg
Experimental: Groups of 8 female mice are sensitized epicutaneously with 50 μl of 2% oxazolone on the shaved ventral abdomen (day 1) and challenged with 10 μl of 0.2% oxazolone on the inner surface of the right ear (day 8). The unchallenged left ears serve as normal controls and dermatitis is evaluated from the difference in pinnal weight which is taken as a measure of inflammatory swelling (day 9). In addition, activity of myeloperoxidase (MPO) serving as a measure of leukocyte influx in ear homogenates are determined as described by Bradley et al., J. Invest. Dermatol; 78:206-209 (1982). The animals are treated orally 2 hours after challenge with the test compound of example 10. Activity is calculated as the percentage of inhibition of inflammatory auricular swelling and of MPO activity relative to animals treated with the vehicle alone. For comparison mice are treated intraperitoneally with 100 μl monoclonal anti-mouse LFA-1 antibody 1 hour before challenge and evaluated as described.

LFA-1/ICAM-1 = molecular target: T1, LFA-1/ICAM-1 (Homo sapiens, UniProt P20701); assay: Cell free assay: binding of soluble human ICAM-1 to immobilized human LFA-1; conditions: immobilized human LFA-1, biotinylated ICAM-1, read-out: IC50, inhibition of adhesion of LFA-1 to ICAM-1
T1 construct: endogenous in cells; ICAM-1-Cκ fusion: made in house in the baculovirus system
Experimental: The assay determines the binding of soluble human ICAM-1 to immobilized human LFA-1. LFA-1 is purified from JY cells, a human lymphoblastoid B cell-line, by immunoaffinity chromatography analogously as described by Dustin et al., J. Immunol. 148, 2654-2663, 1992. ICAM-1 mouse Cκ fusion protein (ICAM-1) is produced using the baculovirus system as described by Weitz-Schmidt et al., Anal. Biochem. 238, 184-190, 1996. Purified LFA-1 is diluted 1:20 in phosphate buffered saline (PBS) containing 2 mM MgCl2, pH 7.4 and coated onto microtiter plates (Nunc) at 37° for 3 hours. Plates are blocked with 1% heat-treated bovine serum albumin in PBS for 2 hours at 37° followed by a washing step using PBS, 2 mM MgCl2, 1% fetal calf serum, pH 7.4 (assay buffer). Compounds of the present invention (10 mM solution in DMSO) are diluted in assay buffer and added to the plates. Biotinylated recombinant ICAM-1 in assay buffer (6 μg/ml) is added and allowed to bind at 37° for one hour. After incubation, wells are washed with assay buffer. Streptavidin-peroxidase diluted 1:5000 in assay buffer is added and incubated for 45 min at 37°. […] The reaction is stopped after 20 minutes and bound ICAM-1 is determined by measuring the optical density at 405 nm in a microplate reader.

[2] = system: allergic contact dermatitis in NMRI mice; assay: Allergic contact dermatitis (ACD) in vivo test system, oxazolone, auricular weight; conditions: p.o., 0.03 mg/kg, 2 hours after challenge
Experimental: Groups of 8 female NMRI mice are sensitized on the shaved abdomen with 50 μl of oxazolone (2% in acetone) and challenged with 10 μl of 0.2% oxazolone on the inner surface of the right ear 7 days later. The unchallenged left ears serve as normal controls and dermatitis is evaluated from the individual differences in auricular weights, which are taken as a measure of inflammatory swelling 24 hours after the challenge. Dermatitis is evaluated in test- and control groups. The test groups are treated with the test compounds orally (2 hours after challenge), the controls are treated similarly with the vehicles alone. For oral administration the compounds are administered in an oil in H2O emulsion. The data of the test- and the vehicle-treated control groups are statistically analysed by ANOVA followed by Dunnet T-test (normal distribution or data) or by H and U-test, respectively. […] For example, compound of Example 14 has an inhibiting effect in this assay of >30% when administered p.o. at a dose of 0.03 mg/kg.

T1 sequence (P20701 26-1170): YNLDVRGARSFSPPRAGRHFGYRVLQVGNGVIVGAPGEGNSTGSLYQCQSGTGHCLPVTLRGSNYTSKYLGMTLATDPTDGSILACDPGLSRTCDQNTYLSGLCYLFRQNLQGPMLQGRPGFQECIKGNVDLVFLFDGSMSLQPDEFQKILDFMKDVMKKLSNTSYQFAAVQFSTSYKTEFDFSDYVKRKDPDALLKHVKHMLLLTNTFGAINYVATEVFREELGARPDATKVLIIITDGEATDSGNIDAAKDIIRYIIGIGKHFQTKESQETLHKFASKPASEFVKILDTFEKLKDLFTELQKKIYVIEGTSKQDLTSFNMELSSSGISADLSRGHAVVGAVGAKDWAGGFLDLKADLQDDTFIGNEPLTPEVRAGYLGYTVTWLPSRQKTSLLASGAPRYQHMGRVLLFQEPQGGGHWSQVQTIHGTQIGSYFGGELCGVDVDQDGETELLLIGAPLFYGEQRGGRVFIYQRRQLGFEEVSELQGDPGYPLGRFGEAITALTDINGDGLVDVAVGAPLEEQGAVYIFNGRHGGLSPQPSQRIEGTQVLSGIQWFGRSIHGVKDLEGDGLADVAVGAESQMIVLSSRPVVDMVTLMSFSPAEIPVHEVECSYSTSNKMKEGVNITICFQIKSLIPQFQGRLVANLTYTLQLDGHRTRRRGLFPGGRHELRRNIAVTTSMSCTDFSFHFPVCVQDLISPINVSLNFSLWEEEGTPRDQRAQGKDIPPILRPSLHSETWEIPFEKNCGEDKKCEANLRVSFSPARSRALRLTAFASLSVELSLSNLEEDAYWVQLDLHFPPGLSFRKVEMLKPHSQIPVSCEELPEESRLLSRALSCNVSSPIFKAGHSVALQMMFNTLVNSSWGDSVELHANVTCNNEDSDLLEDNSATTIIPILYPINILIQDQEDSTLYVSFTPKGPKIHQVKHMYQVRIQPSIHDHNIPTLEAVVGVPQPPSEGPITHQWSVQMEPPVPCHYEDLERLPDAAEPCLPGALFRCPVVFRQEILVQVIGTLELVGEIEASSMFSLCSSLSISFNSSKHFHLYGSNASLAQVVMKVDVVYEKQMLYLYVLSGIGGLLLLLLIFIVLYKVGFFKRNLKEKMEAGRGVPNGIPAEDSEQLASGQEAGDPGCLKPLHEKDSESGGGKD
T1 sequence (P05107 23-769 partner): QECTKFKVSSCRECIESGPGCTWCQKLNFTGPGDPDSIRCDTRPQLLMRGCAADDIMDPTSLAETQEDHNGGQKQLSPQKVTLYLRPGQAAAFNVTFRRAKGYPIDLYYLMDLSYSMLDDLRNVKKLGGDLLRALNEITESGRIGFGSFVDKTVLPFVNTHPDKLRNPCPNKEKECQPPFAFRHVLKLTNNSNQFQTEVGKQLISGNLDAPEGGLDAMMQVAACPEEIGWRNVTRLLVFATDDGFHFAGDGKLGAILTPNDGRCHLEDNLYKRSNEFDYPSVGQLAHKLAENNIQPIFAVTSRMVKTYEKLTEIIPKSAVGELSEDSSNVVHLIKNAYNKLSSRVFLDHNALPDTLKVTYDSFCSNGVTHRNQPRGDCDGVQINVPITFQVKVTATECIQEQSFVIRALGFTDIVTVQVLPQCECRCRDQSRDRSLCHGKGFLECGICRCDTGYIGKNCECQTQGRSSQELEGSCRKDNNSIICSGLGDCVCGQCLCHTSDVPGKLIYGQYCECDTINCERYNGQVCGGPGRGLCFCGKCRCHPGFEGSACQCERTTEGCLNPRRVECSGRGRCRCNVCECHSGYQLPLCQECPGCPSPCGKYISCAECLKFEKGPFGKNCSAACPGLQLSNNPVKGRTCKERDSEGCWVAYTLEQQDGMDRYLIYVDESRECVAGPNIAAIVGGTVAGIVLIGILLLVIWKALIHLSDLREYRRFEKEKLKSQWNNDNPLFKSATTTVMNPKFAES

Structure (SMILES): C[C@@H]1CCN([C@H](Cc2cccc3ccccc23)C(N)=O)C(=O)[C@H](c2ccc(F)c(Cl)c2)N1C(=O)Cc1ccc2ncccc2c1 [Example 10, (R)-2-[(3S,5R)-3-(3-Chloro-4-fluoro-phenyl)-5-methyl-2-oxo-4-(2-quinolin-6-yl-acetyl)-[1,4]diazepan-1-yl]-3-naphthalen-1-yl-propionamide]
- inhibition of the inflammatory response ([1]; 2 hours after challenge): 40-50%
- inhibition of MPO activity versus inhibition of swelling ([1]; ear homogenates): Inhibition of swelling compared with inhibition of MPO activity is observed

Structure (SMILES): CC1CCN(C(Cc2cccc3ccccc23)C(N)=O)C(=O)C(c2cccc(F)c2)N1C(=O)Cc1ccc2c(c1)OCO2 [Example 13, (R)-2-[4-(2-Benzo[1,3]dioxol-5-yl-acetyl)-3,5-cis-3-(3-fluoro-phenyl)-5-methyl-2-oxo-[1,4]diazepan-1-yl]-3-naphthalen-1-yl-propionamide]
- IC50 (LFA-1/ICAM-1): 430 nM

Structure (SMILES): C[C@@H]1CCN([C@H](Cc2cccc3ccccc23)C(N)=O)C(=O)[C@H](c2cccc(Cl)c2)N1C(=O)Cc1ccc2c(c1)OCO2 [Example 14, (R)-2-[(3S,5R)-4-(2-Benzo[1,3]dioxol-5-yl-acetyl)-3-(3-chloro-phenyl)-5-methyl-2-oxo-[1,4]diazepan-1-yl]-3-naphthalen-1-yl-propionamide]
- inhibiting effect in allergic contact dermatitis (auricular swelling) [2]: > 30%
- IC50 (LFA-1/ICAM-1): 90 nM
